Measurements published in PMC7284870, “Antimicrobial Peptides from Rat-Tailed Maggots of the Drone Fly Eristalis tenax Show Potent Activity against Multidrug-Resistant Gram-Negative Bacteria” (Microorganisms, 2020).
Converted amounts (≈) assume the structure as drawn. Like-named read-outs stand apart in the source and are kept apart here. No end group written: not given here.

Columns and labels:
[1] = test system: P. aeruginosa clinical isolates (2); assay type: cell-based, Pseudomonas aeruginosa
Description: (§1) The strains that were used in this study (Table 2 and Table S1) were cultivated at 37 °C in cation-adjusted Mueller–Hinton broth (CAMB) in Erlenmeyer flasks, or on the same medium with agar in Petri dishes. Exceptionally, Mycobacterium smegmatis was cultivated at 37 °C in brain heart infusion (BHI) medium that was supplemented with 1% Tween-80 in Erlenmeyer flasks, or on the same medium lacking detergent but with agar in Petri dishes. Strains listed with Robert Koch Institute (RKI) strain numbers are clinical isolates from the RKI strain collection originating from hospitalized patients in Germany. The remaining strains originated from the Sanofi strain collection and they were originally purchased from the American Type Culture Collection or the German Collection of Microorganisms and Cell Cultures. Meropenem/colistin-resistant strains were maintained, as described above, with the appropriate antibiotic added at levels below the minimal inhibitory concentration (MIC).
The MIC values were determined in 384-well microtiter plates with an assay volume of 20 µL. Immediately before each assay, the cultures of test organisms (bacteria grown for 18 h, Candida albicans and M. smegmatis grown for 48 h) were diluted with the appropriate medium to a density of 1 × 10^6 cells/mL (C. albicans), 1 × 10^5 cells/mL (M. smegmatis) or 5 × 10^5 cells per mL (other species). […] We transferred 2-µL aliquots from this dilution series to new 384-well microtiter plates while using a CyBio-Well 384-channel automated pipettor (Analytic Jena, Jena, Germany) and added 18 µL of the diluted suspension of each test species using a Viafill reagent dispenser (Integra), thus reducing the final peptide concentration 10-fold to the range 1024–0.03125 µg/mL. […] The growth of M. smegmatis was measured using the BacTiter-Glo luminescence test system (Promega, Madison, WI, USA). The growth of the other species was determined by visual inspection of the microtiter plate and turbidimetry based on the optical density at 600 nm (OD600). […]

[2] = test system: Gram-negative clinical isolates; assay type: cell-based
Method in brief: (§2)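 Broth microdilution in cation-adjusted Mueller–Hinton broth at 37 °C, with 18 h cultures diluted to 5 × 10^5 cells/mL and final peptide concentrations of 1024–0.03125 µg/mL. Growth was scored visually and by OD600. MIC is the lowest concentration with no growth; medium was optionally supplemented with 150 mM NaCl or 1.25 mM CaCl2.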

human erythrocytes = test: Hemolysis of human erythrocytes; details: hRBC in PBS, 3 h, 37 °C, A540; highest tested 1024 µg/mL
Description: Fresh citrated stabilized human whole blood was centrifuged at 500× g for 5 min. and the cell sediment was washed three times with phosphate buffered saline (PBS) before resuspending in PBS (50-fold the initial sample volume) to generate the human red blood cell (hRBC) suspension. The peptides were dissolved in sterile water at a concentration of 10.24 mg/mL and a dilution series was prepared in a 384-well microtiter plate, as above, to achieve the concentration range 10,240–0.3125 µg/mL in a volume of 50 µL. Triton X-100 (positive control) was diluted in sterile water to cover the concentration range 20–0.02%. We transferred 5-µL aliquots to new 384-well microtiter plates using the CyBio-Well 384-channel automated pipettor and added 45 µL of the hRBC suspension while using the Viafill reagent dispenser to achieve the final peptide concentration range 1024–0.031 µg/mL. After incubation at 37 °C. for 3 h, the plate was centrifuged and 20 μL of the supernatant from each well was transferred to a new microtiter plate. The quantity of released hemoglobin was determined by measuring the absorbance at 540 nm using a Lumistar plate reader (BMG Labtech, Ortenberg, Germany). The percent hemolysis was calculated by comparing to a control without peptide (no hemolysis) and a control with 2% Triton X-100 (100% hemolysis).

K. pneumoniae RKI 268/15 = assay type: cell-based, Klebsiella pneumoniae
Description: as §1
(§3) The MIC values were determined in 384-well microtiter plates with an assay volume of 20 µL. Immediately before each assay, the cultures of test organisms (bacteria grown for 18 h, Candida albicans and M. smegmatis grown for 48 h) were diluted with the appropriate medium to a density of 1 × 10^6 cells/mL (C. albicans), 1 × 10^5 cells/mL (M. smegmatis) or 5 × 10^5 cells per mL (other species). […] We transferred 2-µL aliquots from this dilution series to new 384-well microtiter plates while using a CyBio-Well 384-channel automated pipettor (Analytic Jena, Jena, Germany) and added 18 µL of the diluted suspension of each test species using a Viafill reagent dispenser (Integra), thus reducing the final peptide concentration 10-fold to the range 1024–0.03125 µg/mL. […] The growth of M. smegmatis was measured using the BacTiter-Glo luminescence test system (Promega, Madison, WI, USA). The growth of the other species was determined by visual inspection of the microtiter plate and turbidimetry based on the optical density at 600 nm (OD600). The MIC was defined as the peptide concentration at which no bacterial growth was observed. We supplemented the test medium with either 150 mM NaCl or 1.25 mM CaCl2 to represent monovalent and divalent cations to simulate physiological conditions.

K. pneumoniae RKI 68/16 = assay type: cell-based, Klebsiella pneumoniae
Description: as §1, §3

[3] = test system: Listeria monocytogenes DSM 20600; assay type: cell-based; details: CAMB, 18 h, 37 °C, n = 4
Method in brief: as §2

[4] = test system: Staphylococcus epidermidis ATCC 35984; assay type: cell-based; details: CAMB, 18 h, 37 °C, n = 4
Method in brief: as §2

[5] = test system: Enterococcus faecium DSM 17050; assay type: cell-based; details: CAMB, 18 h, 37 °C, n = 4
Method in brief: as §2

[6] = test system: Mycobacterium smegmatis ATCC 607; assay type: cell-based; details: BHI, 48 h, 37 °C, BacTiter-Glo, n = 4
[7] = test system: Stenotrophomonas maltophilia RKI 136/09; assay type: cell-based
Method in brief: as §2

[8] = test system: Proteus mirabilis DSM 4479; assay type: cell-based; details: CAMB, 18 h, 37 °C, n = 4
Method in brief: as §2

E. coli RKI 6A-6 = test: microbe, parasite or virus in culture; assay type: cell-based, Escherichia coli
Method in brief: as §2

E. coli ATCC25922 = test: Checkerboard assay EtDip with colistin; assay type: cell-based, Escherichia coli; details: CAMB, + 150 mM NaCl, + 1.25 mM CaCl2; FICindex ≤0.5 = synergy
Description: (§4) The interactions between pairs of compounds were analyzed using checkerboard assays in a 384-well microtiter plate with an assay volume of 20 µL. Immediately before the test runs, the bacterial cultures were diluted in CAMB to a density of 5 × 10^5 cells/mL. The two compounds for combinatorial testing were arrayed as 10-fold concentrated serial dilutions with respect to the final concentration, vertically for one compound and horizontally for the other, in the same 384-well microplate. Subsequently, we transferred 2-µL aliquots to new 384-well microtiter plates, and growth inhibition in each well was determined, as described for the MIC values above. Fractional inhibitory concentration (FIC) and FICindex values for each combination were calculated using the following formulae, where a
(§5) FICindex ≤0.5 indicates synergy and a FICindex >4 indicates antagonism.
(§6) FIC for compound A = MIC of compound A in combination/MIC of compound A
(§7) FIC for compound B = MIC of compound B in combination/MIC of compound B

A. baumannii ATCC19606 = test: Checkerboard assay EtDip with colistin; assay type: cell-based, Acinetobacter baumannii; details: CAMB, + 150 mM NaCl, + 1.25 mM CaCl2; FICindex ≤0.5 = synergy
Description: as §4, §5, §6, §7

For “GFLKKIGKKLEGAVQRTRDATIQTIAVAQAAANVAATAKQ-NH2 [EtCec1-NH2]”, the MIC ([1]; clinical isolates (2, 18 h)) was 128 µg/mL and the MIC ([2]; 18 h) was no less than 64 µg/mL.

“GWLRDFGKRIERTGQNIRDATIQTIGIAQEAANVAATLK-NH2 [EtCec2-NH2]” was tested, and the minimal hemolytic concentration (human erythrocytes) was 512 µg/mL, the MIC (K. pneumoniae RKI 268/15; Table 4, CAMB, n=3) was 64 µg/mL and the MIC (K. pneumoniae RKI 68/16; Table 4, CAMB, n=3) was 128 µg/mL. It also gave an MIC [3] greater than 1024 µg/mL, an MIC [4] greater than 1024 µg/mL and an MIC [5] greater than 1024 µg/mL. The MIC [6] was greater than 1024 µg/mL, the MIC ([7]; CAMB adjusted to 150 mM NaCl, n=3) was 512 µg/mL and the MIC ([7]; Table 4, CAMB, n=3) was 256 µg/mL. For the same molecule, the MIC ([2]; isolates of M. morganii and S. fonticola) was greater than 128 µg/mL, the MIC [8] was greater than 1024 µg/mL and the MIC (E. coli RKI 6A-6; Table 4, CAMB, n=3) was 64 µg/mL.

With “QFNMQGGGSPRQGFDVNANARFPIWQSQNARNSVHGTASYAQHLGGPYGNSRPNFGGGLQFT [EtDip, diptericin-like peptide of Eristalis tenax]” the minimal hemolytic concentration (human erythrocytes) was greater than 1024 µg/mL, the “interaction with colistin (FICindex)” value (E. coli ATCC25922) was “Synergistic interactions” and the “interaction with colistin (FICindex)” value (A. baumannii ATCC19606) was “Synergistic interactions”. For the same molecule, the MIC [3] was greater than 1024 µg/mL, the MIC [4] was greater than 1024 µg/mL and the MIC [5] was greater than 1024 µg/mL. It also gave an MIC [6] of 64 µg/mL and an MIC [8] greater than 1024 µg/mL.

Molecule `C[C@@H](O)[C@H]1C(=O)N2C(C(=O)O)=C(S[C@@H]3CN[C@H](C(=O)N(C)C)C3)[C@H](C)[C@H]12` [MEM, meropenem] has an MIC ([1]; Table S1, RKI 93/12) of 16 µg/mL (≈ 41.7 µM), an MIC ([1]; Table S1, RKI 628/16) of 8 µg/mL (≈ 20.9 µM) and an MIC (K. pneumoniae RKI 268/15; Table S1, RKI 268/15) of 16 µg/mL (≈ 41.7 µM). The MIC (K. pneumoniae RKI 68/16; Table S1, RKI 68/16) was no more than 0.5 µg/mL, the MIC ([7]; Table S1, RKI 136/09) was greater than 64 µg/mL and the MIC (E. coli RKI 6A-6; Escherichia coli, RKI6A6, Table S1, RKI 6A-6, read-out: MIC) was no more than 0.5 µg/mL.
